The results in this text go back to patent US8466089B2, “Pyrazole compounds, process for their production and herbicides containing them” (Ishihara Sangyo Kaisha, Ltd., priority 2008, dated 2013).

Common to all, as to assay type: in vivo
For test [1], the system named is rice (Oryza sativa L.) (var.: Nihonbare). Description: Test Example 3, paddy field pot, transplanted rice. To be noted: applied 4th day after transplantation, 20th to 23rd day after application, read-out: Growth inhibition rate (%) Rice. In outline: (§1)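 Weeds were sown or planted in flooded paddy-soil pots and treated in the water at 0.5-leaf or primary-leaf stage. Rice (Nihonbare), transplanted at two-leaf stage 3 cm deep, was treated on day 4. Diluted wettable powder or emulsifiable concentrate was used, and growth inhibition (0–100%) was scored visually at 13–17 days for weeds and 20–23 days for rice.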

The subject of test [2] is prickly sida (Sida spinosa L.). Description: Test Example 1, foliar treatment in upland pots. To be noted: 20th to 22nd day after application, visual, read-out: Growth inhibition rate (%) Prickly sida.
In test [3] the test system is soybean (Glycine max Merr.). Description: Test Example 1, foliar treatment in upland pots. Particulars: 20th to 22nd day after application, visual, read-out: Growth inhibition rate (%) Soybean. In outline: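 Compound applied to leaves of pot-grown corn (2.0–3.3 leaf), soybean (primary leaf to 0.3 leaf), rice (1.2–2.5 leaf) and green foxtail (1.5–3.0 leaf); carrier 500 L/ha water, 0.1 vol% spreader. Percent inhibition assessed visually after 20–22 days.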

In test [4] the test system is wheat (Triticum spp.). Description: Test Example 1, foliar treatment in upland pots. Particulars: 20th to 22nd day after application, visual, read-out: Growth inhibition rate (%) Wheat.
The test system of test [5] is Japanese ribbon waparo (Sagittaria pygmaea). The experiment in a line: Test Example 3, paddy field pot, application to irrigated water. To be noted: applied at primary leaf stage, 13th to 17th day after application, read-out: Growth inhibition rate (%) Japanese ribbon waparo. In outline: as §1
For test [6], the system named is barnyardgrass (Echinochloa oryzicola vasing.). Described as above. To be noted: applied at 0.5 leaf stage, 13th to 17th day after application, read-out: Growth inhibition rate (%) barnyard grass. In outline: as §1
Test [7] concerns Japanese bulrush (Scirpus juncoides). The description is as above. Particulars: Schoenoplectiella juncoides, applied at 0.5 leaf stage, 13th to 17th day after application, read-out: Growth inhibition rate (%) Japanese bulrush. In outline:
as §1

Test [8] has as its system velvetleaf (Abutilon theophrasti MEDIC.), guineagrass (Panicum maximum Jacq.), green foxtail (Setaria viridis L.). The experiment in a line: Test Example 4, foliar treatment, herbicidal effect versus Reference Compounds. Particulars: 3.5 to 15 g/ha, 14th to 28th day after application, test written in present tense. The source says: Upland field soil is put into a 1/1,000,000 hectare pot, and seeds of various plants are sown. When the respective plants reach predetermined leaf stage ((1) velvetleaf (Abutilon theophrasti MEDIC.), (2) guineagrass (Panicum maximum Jacq.), (3) green foxtail (Setaria viridis L.), and (4) corn (Zea mays L.), a wettable powder of compound No. 2-1 of the above-mentioned present invention, an emulsifiable concentrate of the following Reference Compound 1 and a wettable powder of the following Reference Compound 2, prepared in accordance with a conventional preparation method, are weighed so that the active ingredients become the prescribed amounts 3.5 to 15 g/ha, and diluted with water in an amount corresponding to 300 liter per 1 hectare (containing 0.5 vol % of an agricultural spreader (MSO concentrate, manufactured by Cognis Corporation). The spray solutions thus prepared are applied for foliar treatment by a small sprayer.

Test [9] has as its system green foxtail (Setaria viridis L.). Description: Test Example 5, foliar treatment versus Reference Compounds. Particulars: 5.0 to 5.5 leaf stage, 18th day after application, read-out: Growth inhibition rate (%) (18th day after application) Green foxtail. An excerpt: Upland field soil was put into a 1/1,000,000 hectare pot, and seeds of various plants were sown. When the respective plants reached predetermined leaf stage ((1) velvetleaf (Abutilon theophrasti MEDIC.): 3.0 to 3.5 leaf stage, (2) giant foxtail (Setaria faberi Herrm.): 4.0 to 4.5 leaf stage, (3) green foxtail (Setaria viridis L.): 5.0 to 5.5 leaf stage, and (4) corn (Zea mays L.): 4.0 to 4.3 leaf stage, a wettable powder of compound No. 2-1 of the above-mentioned present invention, a wettable powder of the above-mentioned Reference Compound 1 and a wettable powder of the above-mentioned Reference Compound 2, prepared in accordance with a conventional preparation method, were weighed so that the active ingredients became the prescribed amounts, and diluted with water in an amount corresponding to 300 liter per 1 hectare (containing 0.5 vol % of an agricultural spreader (Destiny HC: WINFIELD SOLUTIONS by LLC). The spray solutions thus prepared were applied for foliar treatment by a small sprayer.
On the 7th to 20th day after application, the state of growth of the respective plants was visually observed, and the herbicidal effect was evaluated by a growth inhibition rate (%) of 0 (equivalent to the non-treated area) to 100% (complete kill).

Molecules are shown by their SMILES.

As for `COCCOc1c(S(C)(=O)=O)ccc(C(=O)c2cnn(C(C)C)c2OC(C)OC(=O)OC)c1C` (stereo not shown) [Compound No. 4-1, 1-(1-Isopropyl-4-(3-(2-methoxyethoxy)-2-methyl-4-(methylsulfonyl)benzoyl)-1H-pyrazol-5-yloxy)ethyl methyl carbonate], the inhibition (commonly the percentage by which the read-out fell short of the control) at 63 g/ha in test [1] turned out to be 40%; in test [5], 70%; in test [6] it was 100%; in test [7] it was 98%. In addition, the inhibition at 7 g/ha in test [2] came to 60%; in test [3] it was 95%; in test [4] it was 0%.

`CCc1nn(C)c(O)c1C(=O)c1ccc(S(C)(=O)=O)c(OCCOC)c1C` [Compound No. 5-3, (5-Hydroxy-1-methyl-3-ethyl-1H-pyrazol-4-yl)(3-(2-methoxyethoxy)-2-methyl-4-(methylsulfonyl)phenyl)ketone]: the inhibition at 63 g/ha in test [1] amounted to 20%; in test [5] it was 50%; in test [6] it was 60%; in test [7], 50%. In addition, the inhibition at 7 g/ha is 30% in [2] and 0% in test [3].

As for `CCCn1ncc(C(=O)c2ccc(S(C)(=O)=O)c(OCCOC)c2C)c1OC(C)OC(=O)OCC` (stereo not shown) [Compound No. 3-1, Ethyl 1-(1-n-propyl-4-(3-(2-methoxyethoxy)-2-methyl-4-(methylsulfonyl)benzoyl)-1H-pyrazol-5-yloxy)ethyl carbonate], the inhibition at 63 g/ha in [1] is 30%; in test [5], 95%; in test [6], 100%; in test [7], 90%. In addition, the inhibition at 7 g/ha in [2] and in test [4] was 0% throughout.

In the case of `CCCn1ncc(C(=O)c2ccc(S(C)(=O)=O)c(OCCOC)c2C)c1O` [Compound No. 7-1, (5-Hydroxy-1-n-propyl-1H-pyrazol-4-yl)(3-(2-methoxyethoxy)-2-methyl-4-(methylsulfonyl)phenyl)ketone], the inhibition at 63 g/ha in test [1] was found to be 20%; in [5], 90%; in test [6], 30%; in test [7], 70%. For the same compound, the inhibition at 7 g/ha was 20% in test [2], 60% in [3] and 0% in test [4].

On to `Cc1c(C(=O)c2cnn(C)c2O)ccc(S(C)(=O)=O)c1OCCC(C)C` [Compound No. 5-1, (5-Hydroxy-1-methyl-1H-pyrazol-4-yl)(3-(2-isopropylethoxy)-2-methyl-4-(methylsulfonyl)phenyl)ketone], for which the inhibition at 63 g/ha in test [1] was found to be 30%; in [5], 95%; in test [6], 60%; in test [7], 20%. The inhibition at 7 g/ha in test [2] is 40%; in test [4] it was 0%.

For the compound `CCn1ncc(C(=O)c2ccc(S(C)(=O)=O)c(OCCOC)c2C)c1OC(C)OC(=O)OC` (stereo not shown) [Compound No. 2-1, 1-(1-Ethyl-4-(3-(2-methoxyethoxy)-2-methyl-4-(methylsulfonyl)benzoyl)-1H-pyrazol-5-yloxy)ethyl methyl carbonate], the inhibition at 63 g/ha in [1] turned out to be 20%; in test [5], 80%; in test [6], 100%; in [7], 80%. Besides, the “herbicidal effect as compared to Reference Compounds” value in test [8] is “superior herbicidal effects”. The inhibition at 7 g/ha in test [2] is 60%; in [3] it was 95%; in test [4], 0%; in test [9], 70%.

`CCOC(=O)OC(C)Oc1c(C(=O)c2ccc(S(C)(=O)=O)c(OCCOC(C)C)c2C)cnn1C` (stereo not shown) [Compound No. 1-5, Ethyl 1-(4-(3-(2-isopropoxyethoxy)-2-methyl-4-(methylsulfonyl)benzoyl)-1-methyl-1H-pyrazol-5-yloxy)ethyl carbonate]: the inhibition at 63 g/ha was determined as 30% in [1], 90% in [5], 100% in test [6] and 20% in [7]. Besides, the inhibition at 7 g/ha in test [2] and in test [4] was 0% throughout.

Take `COC(=O)OC(C)Oc1c(C(=O)c2ccc(S(C)(=O)=O)c(C(=O)OC)c2C)cnn1C` (stereo not shown) [Compound No. 1-2, Methyl 3-(5-(1-(methoxycarbonyloxy)ethoxy)-1-methyl-1H-pyrazole-4-carbonyl)-2-methyl-6-(methylsulfonyl)benzoate]: the inhibition at 63 g/ha in test [1] came out at 40%; in test [5], 95%; in [6] it was 100%; in test [7], 70%. In addition, the inhibition at 7 g/ha in test [3] came out at 95%; in test [4] it was 0%.

Consider `CCn1nc(C)c(C(=O)c2ccc(S(C)(=O)=O)c(OCCOC)c2C)c1O` [Compound No. 6-1, (1-Ethyl-5-hydroxy-3-methyl-1H-pyrazol-4-yl)(3-(2-methoxyethoxy)-2-methyl-4-(methylsulfonyl)phenyl)ketone], for which the inhibition at 63 g/ha came out at 40% in test [1], 60% in test [5], 60% in test [6] and 80% in test [7]. Also, the inhibition at 7 g/ha in test [2] and in test [4] was 0% each time.

As for `COCCOc1c(S(C)(=O)=O)ccc(C(=O)c2c(C)nn(C)c2O)c1C` [Compound No. 5-2, (5-Hydroxy-1,3-dimethyl-1H-pyrazol-4-yl)(3-(2-methoxyethoxy)-2-methyl-4-(methylsulfonyl)phenyl)ketone], the inhibition at 63 g/ha in [1] worked out at 20%; in [5], 80%; in [6], 80%; in test [7], 70%. The inhibition at 7 g/ha is 40% in test [2] and 70% in [3].

Take `COCCOc1c(S(C)(=O)=O)ccc(C(=O)c2c(C)nn(C)c2OC(C)OC(=O)OC)c1C` (stereo not shown) [Compound No. 1-6, 1-(4-(3-(2-Methoxyethoxy)-2-methyl-4-(methylsulfonyl)benzoyl)-1,3-dimethyl-1H-pyrazol-5-yloxy)ethyl methyl carbonate]: the inhibition at 63 g/ha in [1] was 30%; in test [5], 60%; in test [6], 100%; in test [7] it was 70%. Besides, the inhibition at 7 g/ha in test [2] worked out at 70%; in [3], 80%; in [4], 0%.

Regarding `COCCOc1c(S(C)(=O)=O)ccc(C(=O)c2cnn(C(C)C)c2O)c1C` [Compound No. 8-1, (5-Hydroxy-1-isopropyl-1H-pyrazol-4-yl)(3-(2-methoxyethoxy)-2-methyl-4-(methylsulfonyl)phenyl)ketone], the inhibition at 63 g/ha is 60% in test [1], 95% in test [5], 95% in [6] and 95% in test [7]. In addition, the values for the inhibition at 7 g/ha in test [2], in [3] and in test [4] were 30%, 40% and 0%, respectively.
